Several values for one entry are separate records, joined by “and”; a condition that tells them apart may be missing. Equal entries are not always repeated. Entries after “also recorded” stand apart in the source; their conditions may differ.
Key:
[1] = NCT04956640 Phase 1b Cohort C2 (with cetuximab) safety: treatment-emergent adverse events
Excerpt: A “DLT” is defined as any of the treatment-emergent adverse event (TEAEs), as defined by the National Cancer Institute's Common Terminology Criteria for Adverse Events, version 5.0 (NCI CTCAE v5.0), deemed clinically significant and occurring during the first 21 days of study drug per dose level per patient, unless the adverse event (AE) can be clearly related to the patient's underlying disease, other medical condition, or concomitant medications including any AEs attributed by the Investigator to the combination agent alone. A TEAE is defined as an AE that starts or worsens on or after the date of the first dose of study drug (for example on Study Day 1) through 28 days (+14 days window) after the date of the last dose of study drug or the first date starting new anticancer therapy, whichever is earlier. A Serious TEAE is defined as an TEAE that is grade 3 or higher based on severity grade assignment as defined by the National Cancer Institute's Common Terminology Criteria for Adverse Events, version 5.0 (NCI CTCAE v5.0). A Fatal TEAE is defined as an TEAE that is grade 5 based on severity grade assignment as defined by the National Cancer Institute's Common Terminology Criteria for Adverse Events, version 5.0 (NCI CTCAE v5.0). […]

[2] = tested on: KRAS G12C-mutant advanced NSCLC; experiment: NCT04956640 Phase 1b Cohort B4 (with pembrolizumab) clinical response (BOR, ORR, DCR, DOR, TTR, % change from baseline, treatment duration); format: in vivo, human; conditions: for Time to response (TTR) 2 to <4 months / Time to response (TTR) <2 months: Phase 1b Cohort B4 responders
Procedure: The term “BOR” as used herein refers to best overall response based on investigator assessments using RECIST criteria (version 1.1). The minimum duration for BOR of SD is at least 6 weeks after the date of first dose of study drug.
The term “DOR” as used herein refers to duration of response, wherein DOR in months is calculated as the event or censoring date minus the response start date plus 1 day divided by 30.4375.
The term “ORR” as used herein refers to objective response rate, wherein objective response rate is the proportion of patients with BOR of CR or PR. Objective response rate, unconfirmed, is the proportion of patients with BOR of CR, PR, or uPR.
The term “TTR” as used herein refers to time to response, wherein TTR in months is calculated as response start date minus first dose date plus 1 day divided by 30.4375.

[3] = Phase 1b Cohort B4, Total (N = 13)
[4] = Phase 1b Cohort B4, individual patients, starting dose 50 BID, prior KRAS G12Ci Y
[5] = Phase 1b Cohort B4, individual patients, starting dose 100 BID, no prior KRAS G12Ci, listed as compound of Formula I
[6] = Phase 1b Cohort B4, individual patients, starting dose 150 BID, no prior KRAS G12Ci, listed as compound of Formula I
[7] = Phase 1b Cohort B4, individual patients, starting dose 150 BID, prior KRAS G12Ci Y, listed as compound of Formula I
[8] = Phase 1b Cohort B4, starting dose 50 mg BID (N = 1)
[9] = Phase 1b Cohort B4, starting dose 100 mg BID (N = 6)
[10] = Phase 1b Cohort B4, starting dose 150 mg BID (N = 6)
[11] = starting dose 50 mg BID (N = 1)
[12] = starting dose 100 mg BID (N = 6)
[13] = starting dose 150 mg BID (N = 6)

## C=CC(=O)N1CCN2C(=O)c3cc(F)c(-c4ccc(F)c5sc(N)c(C#N)c45)c(Cl)c3OCC[C@H]2C1 (single isomer, unassigned) [Formula I]
[1]; 100 mg BID
  DLT: One DLT, a grade 3 ALT/AST ratio increase
[1]; in vivo
  permanent discontinuation due to TRAEs: No Phase 1b Cohort C2 patient permanently discontinued
[2]; 50 mg BID
  Duration of response (DOR) <6 months: 0 (NE) n (%)
[2]; 50 mg BID (N = 1)
  Patients with best overall response of CR or PR: 0 (0.0) N′ (%)
[2]; 100 mg BID
  Duration of response (DOR) <6 months: 2 (100.0) n (%)
[2]; 100 mg BID (N = 6)
  Patients with best overall response of CR or PR: 2 (33.3) N′ (%)
[2]; 150 mg BID
  Duration of response (DOR) <6 months: 3 (100.0) n (%)
[2]; 150 mg BID (N = 6)
  Patients with best overall response of CR or PR: 3 (50.0) N′ (%)
[2]; [3]
  Best overall response (BOR): Complete Response (CR), %: (0.0) %
  Best overall response (BOR): Not Evaluable (NE), %: (0.0) %
  Best overall response (BOR): Partial Response (PR), %: (38.5) %
  Best overall response (BOR): Partial Response, pending confirmation and ongoing (uPR), %: (30.8) %
  Best overall response (BOR): Progressive Disease (PD), %: (7.7) %
  Best overall response (BOR): Stable Disease (SD), %: (23.1) %
  Disease control rate (CR + PR + IPR + SD), %: (92.3) %
  Objective response rate (CR + PR), %: (38.5) %
  Objective response rate, confirmed and unconfirmed (CR + PR + uPR), %: (69.2) %
  Patients with best overall response of CR or PR: 5 (38.5) N′ (%)
  Time to response (months), Interquartile range: 0.07 months
  Time to response (months), Median: 1.38 months
[2]; [4]
  % Change from Baseline in Sum of Diameters for all Target Lesions: 1.1%
  Time (months) of Progressive Disease: 1.1 months
[2]; [5]
  % Change from Baseline in Sum of Diameters for all Target Lesions: 0.0% and −40.9% and −45.1% and −59.4% and −82.8%
  Best Response: PR Pending; also recorded: PR Confirmed
  Time (months) of Partial Response - Confirmed: 1.3 months and 1.1 months
  Time (months) of Partial Response - Pending Confirmation and Ongoing: 1.3 months and 1.4 months
[2]; Phase 1b Cohort B4, individual patients, starting dose 100 BID, prior KRAS G12Ci Y
  % Change from Baseline in Sum of Diameters for all Target Lesions: 0.0%
[2]; [6]
  % Change from Baseline in Sum of Diameters for all Target Lesions: −29.5% and −38.2% and −49.2% and −57.7%
  Best Response: PR Pending; also recorded: PR Confirmed
  Time (months) of Partial Response - Confirmed: 1.4 months (2×) and 3.0 months
[2]; Phase 1b Cohort B4, individual patients, starting dose 150 BID, prior KRAS G12Ci Y
  Time (months) of Partial Response - Pending Confirmation and Ongoing: 1.1 months
[2]; [7]
  % Change from Baseline in Sum of Diameters for all Target Lesions: −32.1% and 7.3%
  Best Response: PR Confirmed
[2]; [8]
  Best overall response (BOR): Complete Response (CR), %: (0.0) %
  Best overall response (BOR): Not Evaluable (NE), %: (0.0) %
  Best overall response (BOR): Partial Response (PR), %: (0.0) %
  Best overall response (BOR): Partial Response, pending confirmation and ongoing (uPR), %: (0.0) %
  Best overall response (BOR): Progressive Disease (PD), %: (100.0) %
  Best overall response (BOR): Stable Disease (SD), %: (0.0) %
  Disease control rate (CR + PR + IPR + SD), %: (0.0) %
  Objective response rate (CR + PR), %: (0.0) %
  Objective response rate, confirmed and unconfirmed (CR + PR + uPR), %: (0.0) %
  Patients with best overall response of CR or PR: 0 (0.0) N′ (%)
[2]; [9]
  Best overall response (BOR): Complete Response (CR), %: (0.0) %
  Best overall response (BOR): Not Evaluable (NE), %: (0.0) %
  Best overall response (BOR): Partial Response (PR), %: (33.3) %
  Best overall response (BOR): Partial Response, pending confirmation and ongoing (uPR), %: (33.3) %
  Best overall response (BOR): Progressive Disease (PD), %: (0.0) %
  Best overall response (BOR): Stable Disease (SD), %: (33.3) %
  Disease control rate (CR + PR + IPR + SD), %: (100.0) %
  Objective response rate (CR + PR), %: (33.3) %
  Objective response rate, confirmed and unconfirmed (CR + PR + uPR), %: (66.7) %
  Patients with best overall response of CR or PR: 2 (33.3) N′ (%)
  Time to response (months), Interquartile range: 0.26 months
  Time to response (months), Median: 1.22 months
[2]; [10]
  Best overall response (BOR): Complete Response (CR), %: (0.0) %
  Best overall response (BOR): Not Evaluable (NE), %: 0.0%
  Best overall response (BOR): Partial Response (PR), %: (50.0) %
  Best overall response (BOR): Partial Response, pending confirmation and ongoing (uPR), %: (33.3) %
  Best overall response (BOR): Progressive Disease (PD), %: (0.0) %
  Best overall response (BOR): Stable Disease (SD), %: (16.7) %
  Disease control rate (CR + PR + IPR + SD), %: (100.0) %
  Objective response rate (CR + PR), %: (50.0) %
  Objective response rate, confirmed and unconfirmed (CR + PR + uPR), %: (83.3) %
  Patients with best overall response of CR or PR: 3 (50.0) N′ (%)
  Time to response (months), Interquartile range: 1.61 months
  Time to response (months), Median: 1.41 months
[2]; Total (N = 13)
  Time to response (TTR) 2 to <4 months: 1 (20.0) n (%)
  Time to response (TTR) <2 months: 4 (80.0) n (%)
  Patients with best overall response of CR or PR: 5 (38.5) N′ (%)
[2]; [11]
  Time to response (TTR) 2 to <4 months: 0 (NE) n (%)
  Time to response (TTR) <2 months: 0 (NE) n (%)
[2]; [12]
  Time to response (TTR) 2 to <4 months: 0 (0.0) n (%)
  Time to response (TTR) <2 months: 2 (100.0) n (%)
[2]; [13]
  Time to response (TTR) 2 to <4 months: 1 (33.3) n (%)
  Time to response (TTR) <2 months: 2 (66.7) n (%)
[2]; Total
  Duration of response (DOR) <6 months: 5 (100.0) n (%)
[2]; human, in vivo
  median time to response: 1.4 month
